Data from PMC6263154 (Bioorganic & medicinal chemistry letters, 2018).

What was measured:
M. abscessus infection = conditions: mouse model of M. abscessus infection, intrapulmonary delivery; cited from earlier work
mmpL3 = conditions: in both Mabs and Mtb; cited from earlier work
[1] = set-up: species or system mice; conditions: mouse, in vivo
[2] = test system: CYP2B6, CYP2C8, CYP2C9, CYP2C19, CYP2D6, CYP3A4; test: CYP inhibition, in vitro panel of six common isoforms; type: biochemical; conditions: human
[3] = Cytotoxicity towards HepG2 cell line; type: cell-based; conditions: human, HepG2 cells
CYP3A4 = CYP3A4 (Homo sapiens, UniProt P08684); test: CYP inhibition, CYP3A4; type: biochemical
[4] = test system: Mycobacterium avium complex; test: MIC against Mycobacterium avium complex; type: cell-based; conditions: MAC; listed as CRS400393
CYP2B6 = molecular target: T1, CYP2B6 (Homo sapiens, UniProt P20813); test: CYP inhibition, CYP2B6; type: biochemical
T1 sequence (P20813 1-491): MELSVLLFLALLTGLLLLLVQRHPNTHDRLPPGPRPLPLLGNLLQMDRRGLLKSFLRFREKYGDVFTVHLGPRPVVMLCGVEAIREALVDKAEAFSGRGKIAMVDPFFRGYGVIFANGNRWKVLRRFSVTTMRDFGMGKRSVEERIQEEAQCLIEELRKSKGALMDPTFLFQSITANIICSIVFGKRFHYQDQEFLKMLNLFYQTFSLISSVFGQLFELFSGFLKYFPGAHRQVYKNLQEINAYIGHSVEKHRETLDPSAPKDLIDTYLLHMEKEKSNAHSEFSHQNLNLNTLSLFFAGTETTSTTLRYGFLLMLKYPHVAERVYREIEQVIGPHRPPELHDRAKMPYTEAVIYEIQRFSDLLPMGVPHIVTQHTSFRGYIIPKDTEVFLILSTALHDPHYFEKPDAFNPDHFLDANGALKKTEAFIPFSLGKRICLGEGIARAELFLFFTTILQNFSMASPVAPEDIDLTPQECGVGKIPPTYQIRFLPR

Mabs = conditions: for 3 days; cited from earlier work

CYP3A4, sequence (P08684 whole entry): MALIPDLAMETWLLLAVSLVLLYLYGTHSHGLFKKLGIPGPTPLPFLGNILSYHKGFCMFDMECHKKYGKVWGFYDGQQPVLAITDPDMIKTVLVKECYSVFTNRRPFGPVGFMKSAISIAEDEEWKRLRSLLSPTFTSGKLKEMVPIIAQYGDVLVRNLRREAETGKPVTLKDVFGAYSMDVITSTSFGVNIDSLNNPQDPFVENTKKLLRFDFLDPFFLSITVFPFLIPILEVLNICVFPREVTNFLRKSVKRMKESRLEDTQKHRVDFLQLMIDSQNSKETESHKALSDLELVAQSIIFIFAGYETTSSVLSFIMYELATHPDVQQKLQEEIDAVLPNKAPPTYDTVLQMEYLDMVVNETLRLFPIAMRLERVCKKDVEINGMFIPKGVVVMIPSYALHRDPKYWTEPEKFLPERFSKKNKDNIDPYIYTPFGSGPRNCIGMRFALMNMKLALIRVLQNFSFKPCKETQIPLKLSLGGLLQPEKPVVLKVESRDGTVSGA

SMILES	effect on transfer of mycolic acids to cell envelope acceptors (mmpL3)	inhibition at 10 µM (CYP3A4) [%]	inhibition at 10 µM (CYP2B6) [%]	further results
CC12CC3CC(C)(C1)CC(C(=O)Nc1nc4ccc(OC(F)(F)F)cc4s1)(C3)C2 [CRS400226]				in vivo efficacy (M. abscessus infection): demonstrated in vivo efficacy
CC1CC(C(=O)Nc2nc3c(F)cc(F)cc3s2)CC(C)(C)C1 (stereo not drawn) [Compound 18]	affect the transfer of mycolic acids			single dose toxicity observation [1]: All mice appeared normal with no abnormal behavior observed
CC1CC(C(=O)Nc2nc3ccc(OC(F)(F)F)cc3s2)CC(C)(C)C1 (stereo not drawn) [Compound 32]	affect the transfer of mycolic acids			IC50 [2]: > 20 µM; IC50 [3]: > 100 µM
CC12CCCC(C(=O)Nc3nc4cc(Cl)cc(Cl)c4s3)(CCC1)C2 [Compound 43]		≤ 50	≤ 50	MIC against Mycobacterium avium complex [4]: 1 to 2 µg/mL; time kill: effect against Mabs (Mabs): bacteriostatic
CC12CCCC(C(=O)Nc3nc4ccc(OC(F)(F)F)cc4s3)(CCC1)C2 [Compound 52]		≤ 50	≤ 50	
